Assays:
Assay type in all cases: cell-based
[1] = molecular target: T1, TetR-ERLBDT2 regulatory fusion protein (UniProt P03372+P04483, G400V/L544A/M543A); assay: hFcγRI expression regulated by TetR-ERLBDT2 in CHO K1-FcR/pTE313 clones, FITC-hFc staining and flow cytometry; conditions: clone D124 (pool C12); OHT present without Dox
T1 construct: 11 amino acid linker […]; expressed in transfected cells; host or cells: CHO K1-FcR cells (CHO K1 with pTE158) stably transfected with pTE313
Experimental: The cells were placed in the culture medium (10% fetal bovine serum, 90% Ham's F-12, 2 mM L-glutamine; all reagents were from Life Technologies, Rockville, Md.) containing 500 G418 (Life Technologies) for 12 days. […] Briefly, cells grown on 10 cm culture plates were washed once with Dulbecco's phosphate-buffered saline (PBS) without calcium chloride and magnesium chloride (Life Technologies). Two milliliters of 0.25% trypsin (Life Technologies) was added to each plate and incubated at 37° C. for 4-5 min. The plates were swirled until the cells detached from the plate. Four milliliters of culture medium was immediately added to each plate of the detached cells. […] Washed cells capable of binding FITC-hFc were measured by flow cytometry on a MOFLO™ cell sorter (Cytomation; Fort Collins, Colo.). […] The total pool of fluorescent cells from the G418-resistant population was collected by flow cytometry, expanded then analyzed by flow cytometry for expression of hFcγRI. […]
Cells were incubated for three days then stained with FITC-hFc to detect the presence of hFcγRI. The top 60% of hFcγRI-positive cells from the culture induced with 1 μg/ml Dox were isolated to yield pool B 11, and cells with the lowest 30% fluorescence were isolated from cells grown in medium without Dox to yield pool B 12. […]

[2] = molecular target: T2, Arc2-ERLBDT2 fusion protein (Homo sapiens, UniProt P03372, G400V/L544A/M543A); assay: hFcγRI expression regulated by Arc2-ERLBDT2 in CHO K1/pTE534 cells transfected with pTE529, FITC-hFc staining and flow cytometry
T2 construct: expressed in transfected cells; host or cells: CHO K1/pTE534 cells (A2) or RGC12 cells, a CHO K1 derivative (A3), stably transfected with pTE529
T2 sequence (P03372 with tags, fused parts or gaps G400V/M543A/L544A): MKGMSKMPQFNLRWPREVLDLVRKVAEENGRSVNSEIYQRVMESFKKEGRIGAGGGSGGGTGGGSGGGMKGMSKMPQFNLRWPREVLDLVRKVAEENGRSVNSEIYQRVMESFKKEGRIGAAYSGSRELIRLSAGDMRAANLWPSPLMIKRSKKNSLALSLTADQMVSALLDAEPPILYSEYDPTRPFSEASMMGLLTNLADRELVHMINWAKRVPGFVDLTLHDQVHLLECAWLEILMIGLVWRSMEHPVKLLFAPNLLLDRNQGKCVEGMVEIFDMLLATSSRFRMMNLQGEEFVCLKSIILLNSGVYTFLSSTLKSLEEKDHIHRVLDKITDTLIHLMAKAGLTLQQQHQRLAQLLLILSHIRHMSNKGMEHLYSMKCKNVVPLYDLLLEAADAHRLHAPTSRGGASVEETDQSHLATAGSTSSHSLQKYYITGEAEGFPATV
Experimental: CHO K1 cells (2×10^6) were transfected with pTE534 using Lipofectamine™ as described above. The cells were placed in the culture medium (10% fetal bovine serum, 90% Ham's F-12, 2 mM L-glutamine; all reagents were from Invitrogen Life Technologies, Carlsbad, Calif.) containing 400 μg/ml G418 (Invitrogen Life Technologies) for 12 days. Cells resistant to G418 were trypsinized, pooled, and stained with 2 μg/ml of FITC-conjugated human IgG, Fc fragment (FITC-hFc) as described above. […] Cells that expressed hFcγRI bound FITC-hFc and were isolated based on their fluorescence by flow cytometry on a MOFLO™ cell sorter. Cells with the highest 3% fluorescence in this population were isolated, pooled, and expanded. This hFcγRI-positive pool was enriched by repeating the cell surface staining with FITC-hFc and sorting the top 30% most fluorescent cells in the population to yield pool B. Cells in pool B that were among the top 20% expressing hFcγRI were isolated to yield pool C. Pool C2 (CHOK1/pTE534) was used to generate inducible cell lines regulated by Arc-ERLBDT2.
CHO K1/pTE534 cells (2×10^6/dish) were transfected with either pRG985, an empty vector, or pTE529 using Lipofectamine™. […] The cells were stained with FITC-hFc as described above and analyzed by flow cytometry. […] This pool was expanded in the presence of OHT for 10 days, stained for hFcγRI expression and analyzed by flow cytometry. […]

[3] = molecular target: T2, Arc2-ERLBDT2 fusion protein; assay: Time course of 13SC1132 induction in clone C110 after removal of OHT, mean fluorescence of cell surface-displayed protein; conditions: clone C110 grown in 200 nM OHT, then washed; measured 3, 6 and 9 days after removal
Experimental: RGC12 cells (2×10^6) were transfected with 5 μg pTE529 encoding the Arc-ERLBDT2 protein driven by a ubiquitin promoter (FIG. 9) using Lipofectamine™ as described above. The cells were placed in the culture medium (10% fetal bovine serum, 90% Ham's F-12, 2 mM L-glutamine; all reagents were from lnvitrogen Life Technologies, Carlsbad, Calif.) containing 10 μg/ml puromycin (CalBiochem) for 14 days. Cells resistant to puromycin, expressing the Arc2-ERLBDT2 fusion protein, were then transfected with pTE689 encoding protein of interest […] (FIG. 8) as described above except the culture medium contained 200 nM OHT. […] Cells that secreted the highest levels of 13SC1132 as measured by 13SC1132 complexed with FcγRI on the cell surface (top 5%) were isolated by flow cytometry on a MOFLO™ cell sorter. Cells were grown in the presence of OHT for 7 days, and treated for screening as described above, but the cells with the lowest 5% cell surface fluorescence were isolated in order to enrich for clones with regulated expression of 13SC1132. Cells were then grown in the absence of OHT, treated for flow cytometry, and single cells with the highest 0.1% fluorescence in this population were isolated, expanded, and screened for 13SC1132 expression in the absence of OHT and tight regulation in the presence of OHT. […]

T1 sequence (P04483+P03372 fused P03372:G400V/P03372:M543A/P03372:L544A): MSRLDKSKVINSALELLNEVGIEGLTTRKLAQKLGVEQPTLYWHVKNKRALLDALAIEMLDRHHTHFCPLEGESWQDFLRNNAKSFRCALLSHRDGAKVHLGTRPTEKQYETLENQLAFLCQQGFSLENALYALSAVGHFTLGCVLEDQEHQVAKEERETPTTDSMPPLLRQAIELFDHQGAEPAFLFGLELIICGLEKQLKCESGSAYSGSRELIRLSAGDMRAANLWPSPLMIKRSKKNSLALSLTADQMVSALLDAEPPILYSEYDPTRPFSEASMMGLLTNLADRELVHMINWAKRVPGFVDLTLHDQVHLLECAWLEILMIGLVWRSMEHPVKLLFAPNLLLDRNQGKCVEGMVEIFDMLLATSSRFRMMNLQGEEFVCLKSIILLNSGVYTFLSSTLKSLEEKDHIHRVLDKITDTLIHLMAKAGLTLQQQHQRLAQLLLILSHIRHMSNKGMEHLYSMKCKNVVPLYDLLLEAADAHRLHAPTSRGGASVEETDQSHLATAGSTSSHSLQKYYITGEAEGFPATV

4-hydroxytamoxifen [OHT]
level of hFcγRI expression [1]: no detectable level of hFcγRI
level of hFcγRI expression ([2]; clone C17, OHT present in the medium): No detectable level of hFcγRI
cells in pool that did not express hFcγRI ([2]; sorted pool expanded in the presence of OHT for 10 days): Over 70%
time after OHT removal until full induction of 13SC1132 expression [3]: 6 days
